According to ChEMBL document CHEMBL1781981, “Identification of a novel series of 3-piperidinyl-5-sulfonylindazoles as potent 5-HT6 ligands” (Bioorg Med Chem Lett, 2009):

Biological target: 5-hydroxytryptamine receptor 6 (Homo sapiens, UniProt P50406)
Assay: Antagonist activity at human 5HT6 receptor expressed in HeLa cells assessed as inhibition of 5-HT-induced cAMP accumulation
Type: functional, cell-based

Sequence of 5-hydroxytryptamine receptor 6 (P50406 whole entry): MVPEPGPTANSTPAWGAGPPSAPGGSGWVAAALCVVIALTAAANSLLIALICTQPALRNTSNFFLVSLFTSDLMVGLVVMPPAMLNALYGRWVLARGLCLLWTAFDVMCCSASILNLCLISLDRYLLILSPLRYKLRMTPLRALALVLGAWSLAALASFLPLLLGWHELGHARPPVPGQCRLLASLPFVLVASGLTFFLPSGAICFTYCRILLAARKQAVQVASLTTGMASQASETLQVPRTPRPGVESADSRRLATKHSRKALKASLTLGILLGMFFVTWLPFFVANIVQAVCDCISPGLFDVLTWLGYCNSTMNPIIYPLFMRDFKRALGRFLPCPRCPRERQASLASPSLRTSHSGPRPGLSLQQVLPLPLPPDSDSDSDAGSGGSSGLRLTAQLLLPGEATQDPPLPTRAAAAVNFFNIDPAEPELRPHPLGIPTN

Point of comparison: `CC(C)c1ccc(S(=O)(=O)c2ccc3[nH]nc(C4CCN(C)CC4)c3c2)cc1`, IC50 108 nM. Against it:
- CN1CCC(c2n[nH]c3ccc(S(=O)(=O)c4ccc5ccccc5c4)cc23)CC1 — within 1.5-fold, 102 nM
- CN1CCC(c2n[nH]c3ccc(S(=O)(=O)c4cccc5ccccc45)cc23)CC1 — 2.3-fold higher, 251 nM
- CN1CCC(c2n[nH]c3ccc(S(=O)(=O)c4cccc(Cl)c4)cc23)CC1 — 7-fold higher, 754 nM

Point of comparison: `CN1CCC(c2n[nH]c3ccc(S(=O)(=O)c4ccc5ccccc5c4)cc23)CC1`, Imax 100%. Against it:
- CN1CCC(c2n[nH]c3ccc(S(=O)(=O)c4cccc5ccccc45)cc23)CC1 — the same, 100%
- CN1CCC(c2n[nH]c3ccc(S(=O)(=O)c4cccc(Cl)c4)cc23)CC1 — lower, 95%
- CC(C)c1ccc(S(=O)(=O)c2ccc3[nH]nc(C4CCN(C)CC4)c3c2)cc1 — the same, 100%
